Assay results published in patent US7968591B2, “1,3-disubstituted 4-methyl-1H-pyrrole-2-carboxamides and their use in medicaments” (Gruenenthal GmbH, priority 2006, dated 2011).

biological target: T1, NA transporter (Rattus norvegicus, UniProt Q63380); test: Noradrenalin uptake inhibition in rat brain synaptosomes; format: biochemical; settings: synaptosomes from rat hypothalamus, [3H]-NA
T1 construct: from tissue; host or cells: rat brain hypothalamus, synaptosomes (P2 fraction)
Description: (§1) I. Method for Determining Noradrenalin and 5-HT Uptake Inhibition:
(§2) Synaptosomes from rat brain regions were freshly isolated for in vitro studies, as described in the publication “The isolation of nerve endings from brain” by E. G. Gray and V. P. Whittaker, J. Anatomy 96, pages 79-88, 1962. The corresponding literature description is hereby introduced as a reference and is deemed to be part of the disclosure.
(§3) The tissue (hypothalamus for the determination of noradrenalin uptake inhibition and medulla and pons for the determination of 5-HT uptake inhibition) was homogenized in ice-cooled 0.32 M sucrose (100 mg of tissue/1 mL) in a glass homogenizer with Teflon pestle using five complete up and down strokes at 840 revolutions/minute. The homogenate was centrifuged at 4° C. for 10 minutes at 1000 g. After subsequent centrifugation at 17000 g for 55 minutes, the synaptosomes (P2 fraction) were obtained, which were resuspended in 0.32 M glucose (0.5 mL/100 mg of original weight). The particular uptake was measured in a 96-well microtitre plate. The volume was 250 μl and incubation proceeded at room temperature (approx. 20-25° C.) under an O2 atmosphere. The incubation time was 7.5 minutes for [^3H]-NA and 5 minutes for [^3H]-5-HT. The 96 samples were then filtered through a Unifilter GF/B® microtitre plate (Packard) and washed with […] of incubated buffer using a “Brabdel MPXRI-96T Cell-Harvester”. The Unifilter GF/B plate was dried for 1 hour at 55° C. The plate was then sealed with a Back Seal® (Packard) and 35 μl of scintillation fluid were added per well (Ultima Gold®, Packard). After sealing with a top Seal® (Packard) and establishing an equilibrium (around 5 hours), radioactivity was determined in a “Trilux 1450 Microbeta” (Wallac).
(§4) A detailed description of the method may additionally be found in the literature, for example in M. Ch. Frink, H.-H. Hennies, W. Engelberger, M. Haurand and B. Wilffert (1996) Arzneim.-Forsch./Drug Res. 46 (III), 11, 1029-1036.

T1 sequence (Q63380 1-617): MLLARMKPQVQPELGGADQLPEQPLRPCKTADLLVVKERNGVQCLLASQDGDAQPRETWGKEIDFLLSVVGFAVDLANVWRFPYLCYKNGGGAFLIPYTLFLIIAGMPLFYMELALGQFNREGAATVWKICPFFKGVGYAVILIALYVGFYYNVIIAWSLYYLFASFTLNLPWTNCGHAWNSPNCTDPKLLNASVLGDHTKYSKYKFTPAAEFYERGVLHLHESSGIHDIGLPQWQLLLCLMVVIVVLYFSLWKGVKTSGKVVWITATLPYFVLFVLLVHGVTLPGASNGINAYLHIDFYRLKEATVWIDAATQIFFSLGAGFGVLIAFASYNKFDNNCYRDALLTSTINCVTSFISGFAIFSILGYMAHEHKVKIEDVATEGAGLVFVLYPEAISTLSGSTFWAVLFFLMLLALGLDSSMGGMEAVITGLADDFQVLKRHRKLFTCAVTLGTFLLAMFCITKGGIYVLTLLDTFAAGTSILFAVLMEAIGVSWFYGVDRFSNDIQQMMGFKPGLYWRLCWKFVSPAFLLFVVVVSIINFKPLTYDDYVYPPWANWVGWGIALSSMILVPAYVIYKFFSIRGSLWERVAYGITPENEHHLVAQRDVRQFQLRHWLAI

SMILES	inhibition at 10 µM
Cc1cn(C)c(C(=O)NCc2ccc(F)cc2C(F)(F)F)c1-c1ccco1 [Example 80, 3-furan-2-yl-1,4-dimethyl-1H-pyrrole-2-carboxylic acid 4-fluoro-2-trifluoromethylbenzylamide]	30%
Cc1cn(Cc2ccccc2)c(C(=O)NCc2ccccn2)c1-c1ccccc1 [Example 26, 1-benzyl-4-methyl-3-phenyl-1H-pyrrole-2-carboxylic acid (pyridin-2-ylmethyl)-amide]	33%
COc1ccc(-c2c(C)cn(Cc3ccc(F)cc3)c2C(=O)NCCc2cccs2)cc1 [Example 35, 1-(4-fluorobenzyl)-3-(4-methoxyphenyl)-4-methyl-1H-pyrrole-2-carboxylic acid (2-thiophen-2-ylethyl)-amide]	37%
Cc1ccc(-c2c(C)cn(C)c2C(=O)N2CCN(C3CCCCCC3)CC2)cc1 [Example 24, (4-cycloheptylpiperazin-1-yl)-(1,4-dimethyl-3-p-tolyl-1H-pyrrol-2-yl)-methanone]	33%
Cc1ccccc1N1CCN(C(=O)c2c(-c3ccc(Cl)cc3)c(C)cn2C)CC1 [Example 46, [3-(4-chlorophenyl)-1,4-dimethyl-1H-pyrrol-2-yl]-(4-o-tolylpiperazin-1-yl)-methanone]	63%
Cc1cn(Cc2ccccc2)c(C(=O)NC(C)c2ccc3ccccc3c2)c1-c1ccco1 (stereo not shown) [Example 81, 1-benzyl-3-furan-2-yl-4-methyl-1H-pyrrole-2-carboxylic acid (1-naphthalen-2-ylethyl)-amide]	57%
COc1ccc(-c2c(C)cn(C)c2C(=O)N2CCN(c3cccc(Cl)c3)CC2)cc1 [Example 70, [4-(3-chlorophenyl)-piperazin-1-yl]-[3-(4-methoxyphenyl)-1,4-dimethyl-1H-pyrrol-2-yl]-methanone]	69%
CCN(CC)CCCNC(=O)c1c(-c2ccc(Cl)cc2)c(C)cn1CC(C)C [Example 65, 3-(4-chlorophenyl)-1-isobutyl-4-methyl-1H-pyrrole-2-carboxylic acid (3-diethylamino-propyl)-amide]	35%
Cc1cn(Cc2ccccc2)c(C(=O)N2CCN(c3ccccc3Cl)CC2)c1-c1ccc(Cl)cc1 [Example 8, [1-benzyl-3-(4-chlorophenyl)-4-methyl-1H-pyrrol-2-yl]-[4-(2-chlorophenyl)-piperazin-1-yl]-methanone]	70%
Cc1cn(CC(C)C)c(C(=O)NCc2ccc(N(C)C)cc2)c1-c1ccc(Cl)cc1 [Example 32, 3-(4-chlorophenyl)-1-isobutyl-4-methyl-1H-pyrrole-2-carboxylic acid 4-dimethylaminobenzylamide]	35%
Cc1cn(C)c(C(=O)NCCCN2CCCCC2C)c1-c1ccc(Cl)cc1 (stereo not shown) [Example 78, 3-(4-chlorophenyl)-1,4-dimethyl-1H-pyrrole-2-carboxylic acid [3-(2-methylpiperidin-1-yl)-propyl]-amide]	32%
Cc1cn(C)c(C(=O)N2CCN(C3CCCCCC3)CC2)c1-c1ccco1 [Example 61, (4-cycloheptylpiperazin-1-yl)-(3-furan-2-yl-1,4-dimethyl-1H-pyrrol-2-yl)-methanone]	34%
Cc1cn(Cc2ccc(F)cc2)c(C(=O)NCCCN(C)C)c1-c1ccco1 [Example 63, 1-(4-fluorobenzyl)-3-furan-2-yl-4-methyl-1H-pyrrole-2-carboxylic acid (3-dimethylamino-propyl)-amide]	57%

biological target: T2, 5-HT uptake (Rattus norvegicus, UniProt P31652); test: 5-HT uptake inhibition in rat brain synaptosomes; format: biochemical; settings: synaptosomes from rat medulla and pons, [3H]-5-HT
T2 construct: from tissue; host or cells: rat brain medulla and pons, synaptosomes (P2 fraction)
Description: as §1, §2, §3, §4

T2 sequence (P31652 whole entry): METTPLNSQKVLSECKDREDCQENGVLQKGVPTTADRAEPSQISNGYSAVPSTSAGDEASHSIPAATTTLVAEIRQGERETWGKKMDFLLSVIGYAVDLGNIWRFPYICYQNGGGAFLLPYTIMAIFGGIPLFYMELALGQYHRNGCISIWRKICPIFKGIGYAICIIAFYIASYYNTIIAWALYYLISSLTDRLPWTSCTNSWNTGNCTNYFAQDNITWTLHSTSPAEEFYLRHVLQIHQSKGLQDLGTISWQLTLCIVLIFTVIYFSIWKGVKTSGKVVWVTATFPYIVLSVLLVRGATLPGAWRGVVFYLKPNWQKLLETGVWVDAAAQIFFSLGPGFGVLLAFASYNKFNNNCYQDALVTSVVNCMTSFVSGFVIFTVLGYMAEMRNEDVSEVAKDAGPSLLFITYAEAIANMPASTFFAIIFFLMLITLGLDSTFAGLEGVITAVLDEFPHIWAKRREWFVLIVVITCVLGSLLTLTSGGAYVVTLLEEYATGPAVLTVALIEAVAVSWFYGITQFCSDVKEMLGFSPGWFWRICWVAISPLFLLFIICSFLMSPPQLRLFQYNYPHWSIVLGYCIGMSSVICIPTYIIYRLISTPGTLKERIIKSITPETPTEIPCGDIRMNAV

SMILES	inhibition at 10 µM
CCOc1ccc(Br)cc1CN1CCN(C(=O)c2c(-c3ccccc3)c(C)cn2C)CC1 [Example 41, [4-(5-bromo-2-ethoxybenzyl)-piperazin-1-yl]-(1,4-dimethyl-3-phenyl-1H-pyrrol-2-yl)-methanone]	37%
CCn1cc(C)c(-c2ccc(Cl)cc2)c1C(=O)NC(C(=O)OC(C)(C)C)C(C)C (stereo not shown) [Example 36, 2-{[3-(4-chlorophenyl)-1-ethyl-4-methyl-1H-pyrrole-2-carbonyl]-amino}-3-methylbutyric acid tert.-butyl ester]	74%
Cc1ccc(-c2c(C)cn(C)c2C(=O)N2CCN(C3CCCCCC3)CC2)cc1 [Example 24, (4-cycloheptylpiperazin-1-yl)-(1,4-dimethyl-3-p-tolyl-1H-pyrrol-2-yl)-methanone]	54%
COc1ccc(CNC(=O)c2c(-c3ccco3)c(C)cn2Cc2ccc(F)cc2)c(OC)c1 [Example 3, 1-(4-fluorobenzyl)-3-furan-2-yl-4-methyl-1H-pyrrole-2-carboxylic acid 2,4-dimethoxybenzylamide]	58%
Cc1ccccc1N1CCN(C(=O)c2c(-c3ccc(Cl)cc3)c(C)cn2C)CC1 [Example 46, [3-(4-chlorophenyl)-1,4-dimethyl-1H-pyrrol-2-yl]-(4-o-tolylpiperazin-1-yl)-methanone]	34%
COc1ccc(-c2c(C)cn(Cc3ccc(F)cc3)c2C(=O)NC(C)C(=O)OCc2ccccc2)cc1 (stereo not shown) [Example 29, 2-{[1-(4-fluorobenzyl)-3-(4-methoxyphenyl)-4-methyl-1H-pyrrole-2-carbonyl]-amino}-propionic acid benzyl ester]	52%
COc1ccc(-c2c(C)cn(C)c2C(=O)N2CCN(c3cccc(Cl)c3)CC2)cc1 [Example 70, [4-(3-chlorophenyl)-piperazin-1-yl]-[3-(4-methoxyphenyl)-1,4-dimethyl-1H-pyrrol-2-yl]-methanone]	54%
CCOc1ccc(CCNC(=O)c2c(-c3ccc(OC)cc3)c(C)cn2Cc2ccc(F)cc2)cc1 [Example 47, 1-(4-fluorobenzyl)-3-(4-methoxyphenyl)-4-methyl-1H-pyrrole-2-carboxylic acid [2-(4-ethoxyphenyl)-ethyl]-amide]	67%
Cc1ccc(Cn2cc(C)c(-c3ccc(C)cc3)c2C(=O)N2CCN(c3ccc(C)cc3C)CC2)cc1 [Example 18, [4-(2,4-dimethylphenyl)-piperazin-1-yl]-[4-methyl-1-(4-methylbenzyl)-3-p-tolyl-1H-pyrrol-2-yl]-methanone]	50%
COc1cc(OC)c(CN2CCN(C(=O)c3c(-c4ccc(C)cc4)c(C)cn3C)CC2)c(OC)c1 [Example 49, (1,4-dimethyl-3-p-tolyl-1H-pyrrol-2-yl)-[4-(2,4,6-trimethoxybenzyl)-piperazin-1-yl]-methanone]	30%
CCn1cc(C)c(-c2ccc(Cl)cc2)c1C(=O)NCc1cccc(OC)c1OC [Example 34, 3-(4-chlorophenyl)-1-ethyl-4-methyl-1H-pyrrole-2-carboxylic acid 2,3-dimethoxybenzylamide]	37%
COc1ccc(Cn2cc(C)c(-c3ccco3)c2C(=O)NC2CCCc3ccccc32)cc1 (stereo not shown) [Example 37, 3-furan-2-yl-1-(4-methoxybenzyl)-4-methyl-1H-pyrrole-2-carboxylic acid (1,2,3,4-tetrahydro-naphthalen-1-yl)-amide]	68%
Cc1ccc(-c2c(C)cn(Cc3c(Cl)cccc3Cl)c2C(=O)N(C)CCc2ccccn2)cc1 [Example 19, 1-(2,6-dichlorobenzyl)-4-methyl-3-p-tolyl-1H-pyrrole-2-carboxylic acid methyl-(2-pyridin-2-ylethyl)-amide]	39%
Cc1cn(Cc2ccccc2F)c(C(=O)NCCCn2ccnc2)c1-c1ccc(Cl)cc1 [Example 58, 3-(4-chlorophenyl)-1-(2-fluorobenzyl)-4-methyl-1H-pyrrole-2-carboxylic acid (3-imidazol-1-ylpropyl)-amide]	50%
COc1ccc(Cn2cc(C)c(-c3ccc(C)cc3)c2C(=O)N(C)CC(=O)OCc2ccccc2)cc1 [Example 39, {[1-(4-methoxybenzyl)-4-methyl-3-p-tolyl-1H-pyrrole-2-carbonyl]-methylamino}-acetic acid benzyl ester]	54%
CCCCn1cc(C)c(-c2ccc(C)cc2)c1C(=O)NCCc1ccccn1 [Example 4, 1-butyl-4-methyl-3-p-tolyl-1H-pyrrole-2-carboxylic acid (2-pyridin-2-ylethyl)-amide]	39%
Cc1cn(Cc2ccccc2)c(C(=O)NCCc2ccc(Br)cc2)c1-c1ccco1 [Example 60, 1-benzyl-3-furan-2-yl-4-methyl-1H-pyrrole-2-carboxylic acid [2-(4-bromophenyl)-ethyl]-amide]	67%
COc1ccc(OCCNC(=O)c2c(-c3ccccc3)c(C)cn2Cc2ccccc2)cc1 [Example 62, 1-benzyl-4-methyl-3-phenyl-1H-pyrrole-2-carboxylic acid [2-(4-methoxyphenoxy)-ethyl]-amide]	73%
Cc1cn(C)c(C(=O)N2CCN(c3ccncc3)CC2)c1-c1ccc(Cl)cc1 [Example 57, [3-(4-chlorophenyl)-1,4-dimethyl-1H-pyrrol-2-yl]-(4-pyridin-4-ylpiperazin-1-yl)-methanone]	66%
Cc1cn(C)c(C(=O)N2CCN(C3CCCCCC3)CC2)c1-c1ccco1 [Example 61, (4-cycloheptylpiperazin-1-yl)-(3-furan-2-yl-1,4-dimethyl-1H-pyrrol-2-yl)-methanone]	52%
Cc1cn(Cc2ccc(F)cc2)c(C(=O)NCCCN(C)C)c1-c1ccco1 [Example 63, 1-(4-fluorobenzyl)-3-furan-2-yl-4-methyl-1H-pyrrole-2-carboxylic acid (3-dimethylamino-propyl)-amide]	50%
